Test results reported in US10259810B2, “N-sulfonylated pyrazolo[3,4-b]pyridin-6-carboxamides and method of use” (AbbVie S.à.r.l., priority 2015, dated 2019).
Read-outs that look alike come from different tables or passages of the source.

Biological target: T1, ΔF508-CFTR (Homo sapiens, UniProt P13569, DEL508-508)
T1 construct: host or cells: CFBE41o-, doxycycline-inducible
Assay: CFTR cell surface levels using HRP-tagged ΔF508-CFTR expressing CFBE cells, in the presence of a co-corrector
Type: cell-based
Source text: Measuring CFTR Cell Surface Levels Using HRP-Tagged ΔF508-CFTR Expressing CFBE Cells
The HRP-tagged ΔF508-CFTR cell assay measures the expression of CFTR-ΔF508 at the plasma membrane. CFTR-ΔF508 has a folding defect leading to absence of protein at the plasma membrane. This assay is used to evaluate the capacity of compounds to increase the expression of CFTR-ΔF508 at the plasma membrane. The CFTR-ΔF508 is tagged with HRP (horse radish peroxidase enzyme) within the ECL4 (Extracellular loop 4) of CFTR (Phuan, P.-W. et al. Synergy-based small-molecule screen using a human lung epithelial cell line yields ΔF508-CFTR correctors that augment VX-809 maximal efficacy. Mol. Pharmacol. 86, 42-51 (2014)). When HRP-tagged ΔF508-CFTR is present at the plasma membrane, the HRP enzyme activity can be measured. The amount of CFTR-ΔF508 that can be rescued to the plasma membrane is correlated with the amount of functional enzyme that can be measured.
There are several ways to measure the capacity of compounds to rescue CFTR-ΔF508 to the plasma membrane; either compounds are evaluated on their own and the impact on plasma membrane levels is measured or compounds are evaluated in combination with a co-corrector, i.e. a compound that rescues CFTR-ΔF508 to the plasma membrane but rescue can be enhanced by addition of compounds due to a complementary mode of action.
Activity of Compounds in Combination with Co-Corrector:
For this purpose doxycycline-inducible ΔF508-CFTR-HRP expressing CFBE4lo− cells (obtained from Gergely Lukacs, McGill University) were maintained in MEM (Minimum Essential Medium, Gibco; 31095) supplemented with 10% fetal bovine serum (Hyclone; SV30160.03) under puromycin (3 μg/mL) and G418 selection (0.2 mg/mL). For compound testing, cells were seeded at 4000 cells/well in white 384-well plates (Greiner; 781080) in 50 μL of medium containing 0.5 μg/mL doxycycline and incubated for 68 hours at 37° C., 5% CO2. On day four, 10 μL of test compounds diluted in PBS (phosphate buffered saline) were added to the plates at a final DMSO concentration of 0.1%. In order to measure compound synergy with a co-corrector, 3 μM co-corrector (3-[(2R,4R)-4-({[1-(2,2-difluoro-1,3-benzodioxol-5-yl)cyclopropyl]carbonyl}amino)-7-methoxy-3,4-dihydro-2H-chromen-2-yl]benzoic acid) was added along with test compounds. All compound plates contained negative controls (DMSO) and positive controls (3 μM co-corrector). Cell plates were incubated at 33° C., 5% CO2 for 20 hours. On day five, the cells were washed five times with phosphate-buffered saline, and HRP activity was assayed by the addition of 50 μL/well of HRP substrate (SuperSignal™ West Pico Chemiluminescent Substrate, Thermo Scientific; 34080). After incubation for 15 minutes in the dark, the chemiluminescence was measured using a plate reader (EnVision®, Perkin Elmer). Raw data were normalized to percentage activity values using the equation: 100×(Sample−Negative control)/(Positive control−Negative Control).

[1] = HRP-tagged ΔF508-CFTR CFBE cells, in the presence of 3 μM co-corrector
[2] = HRP-tagged ΔF508-CFTR CFBE cells, in the presence of 3 μM co-corrector, read-out: EC50

T1 sequence (P13569 with tags, fused parts or gaps DEL508-508): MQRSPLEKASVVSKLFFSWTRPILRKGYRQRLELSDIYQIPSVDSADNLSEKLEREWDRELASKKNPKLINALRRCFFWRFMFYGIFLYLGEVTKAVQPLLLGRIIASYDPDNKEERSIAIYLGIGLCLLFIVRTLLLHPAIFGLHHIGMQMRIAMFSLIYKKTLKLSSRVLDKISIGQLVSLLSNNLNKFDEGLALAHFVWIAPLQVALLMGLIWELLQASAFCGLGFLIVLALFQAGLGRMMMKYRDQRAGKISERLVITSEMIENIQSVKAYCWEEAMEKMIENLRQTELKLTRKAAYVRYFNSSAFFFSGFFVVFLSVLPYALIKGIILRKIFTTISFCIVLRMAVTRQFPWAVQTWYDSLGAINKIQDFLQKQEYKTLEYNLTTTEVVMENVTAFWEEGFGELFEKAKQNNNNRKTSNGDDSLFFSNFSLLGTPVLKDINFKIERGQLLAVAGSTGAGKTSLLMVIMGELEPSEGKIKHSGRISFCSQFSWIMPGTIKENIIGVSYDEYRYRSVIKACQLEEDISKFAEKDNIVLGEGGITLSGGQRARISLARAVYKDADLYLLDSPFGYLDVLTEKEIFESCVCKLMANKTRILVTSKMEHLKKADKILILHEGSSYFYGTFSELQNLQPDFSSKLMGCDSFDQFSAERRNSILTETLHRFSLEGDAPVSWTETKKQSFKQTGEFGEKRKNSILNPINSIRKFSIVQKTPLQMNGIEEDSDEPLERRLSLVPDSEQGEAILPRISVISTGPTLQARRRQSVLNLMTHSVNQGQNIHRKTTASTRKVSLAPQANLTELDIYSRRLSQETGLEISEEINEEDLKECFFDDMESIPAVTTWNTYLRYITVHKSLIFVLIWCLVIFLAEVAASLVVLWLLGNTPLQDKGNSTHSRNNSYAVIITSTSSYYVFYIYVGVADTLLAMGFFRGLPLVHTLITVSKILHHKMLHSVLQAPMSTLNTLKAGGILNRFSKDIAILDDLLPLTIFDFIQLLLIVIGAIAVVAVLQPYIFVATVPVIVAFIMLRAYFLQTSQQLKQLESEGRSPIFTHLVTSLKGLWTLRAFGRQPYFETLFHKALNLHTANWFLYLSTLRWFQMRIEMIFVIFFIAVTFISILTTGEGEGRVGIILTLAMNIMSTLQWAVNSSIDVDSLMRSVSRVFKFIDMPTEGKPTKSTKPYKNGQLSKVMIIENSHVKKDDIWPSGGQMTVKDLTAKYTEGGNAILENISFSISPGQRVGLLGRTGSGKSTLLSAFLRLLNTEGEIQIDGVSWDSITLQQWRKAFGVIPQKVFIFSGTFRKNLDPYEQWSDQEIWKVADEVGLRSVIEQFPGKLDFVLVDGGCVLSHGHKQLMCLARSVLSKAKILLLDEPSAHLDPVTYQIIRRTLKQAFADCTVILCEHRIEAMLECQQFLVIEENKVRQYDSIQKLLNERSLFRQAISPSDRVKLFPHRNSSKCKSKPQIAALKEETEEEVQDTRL

SMILES | % Activation [1] [%] | EC50 [2] [nM] | EC50 [nM]
CC(C)(C)S(=O)(=O)NC(=O)c1cc(OCC2CCOCC2)c2c(C3CCC3)nn(-c3ccccc3)c2n1 [Compound 362, 3-cyclobutyl-N-(2-methylpropane-2-sulfonyl)-4-[(oxan-4-yl)methoxy]-1-phenyl-1H-pyrazolo[3,4-b]pyridine-6-carboxamide] | 195.75 | 414 | –
CC(=O)N1CCC(F)(COc2cc(C(=O)NS(C)(=O)=O)nc3c2c(C(C)C)nn3-c2ccc(F)cc2)CC1 [Compound 308, 4-[(1-acetyl-4-fluoropiperidin-4-yl)methoxy]-1-(4-fluorophenyl)-N-(methanesulfonyl)-3-(propan-2-yl)-1H-pyrazolo[3,4-b]pyridine-6-carboxamide] | 328.85 | 2490 | –
CCS(=O)(=O)NC(=O)c1cc(N2CCC(N3CCOCC3)CC2)c2c(C(C)C)nn(-c3ccc(F)cc3)c2n1 [Compound 413, N-(ethanesulfonyl)-1-(4-fluorophenyl)-4-[4-(morpholin-4-yl)piperidin-1-yl]-3-(propan-2-yl)-1H-pyrazolo[3,4-b]pyridine-6-carboxamide] | 455.9 | – | 90.6
CN1CCN(S(=O)(=O)NC(=O)c2cc(OCC3CCOCC3)c3c(C4CCC4)nn(-c4ccccc4)c3n2)CC1 [Compound 361, 3-cyclobutyl-N-(4-methylpiperazine-1-sulfonyl)-4-[(oxan-4-yl)methoxy]-1-phenyl-1H-pyrazolo[3,4-b]pyridine-6-carboxamide] | 204.1 | 181 | –
CC(C)c1nn(-c2ccc(F)cc2)c2nc(C(=O)NS(C)(=O)=O)cc(OCCC3CCCCN3C)c12 (centres unmarked) [Compound 305, 1-(4-fluorophenyl)-N-(methanesulfonyl)-4-[2-(1-methylpiperidin-2-yl)ethoxy]-3-(propan-2-yl)-1H-pyrazolo[3,4-b]pyridine-6-carboxamide] | 267 | 2440 | –
COCC1CCN(c2cc(C(=O)NS(=O)(=O)CCn3cccn3)nc3c2c(C2CCC2)nn3-c2ccccc2)CC1 [Compound 372, 3-cyclobutyl-4-[4-(methoxymethyl)piperidin-1-yl]-1-phenyl-N-[2-(1H-pyrazol-1-yl)ethanesulfonyl]-1H-pyrazolo[3,4-b]pyridine-6-carboxamide] | 615.7 | 2560 | –
Cc1nn(-c2ccccc2)c2nc(C(=O)NS(C)(=O)=O)cc(-c3ccc(N4CCOCC4)cc3)c12 [Compound 1, N-(methanesulfonyl)-3-methyl-4-[4-(morpholin-4-yl)phenyl]-1-phenyl-1H-pyrazolo[3,4-b]pyridine-6-carboxamide] | 297.2 | 1190 | –
CC(C)c1nn(-c2ccc(F)cc2)c2nc(C(=O)NS(C)(=O)=O)cc(N3CCC4(CC3)CN(C)C(=O)O4)c12 [Compound 338, 1-(4-fluorophenyl)-N-(methanesulfonyl)-4-(3-methyl-2-oxo-1-oxa-3,8-diazaspiro[4.5]decan-8-yl)-3-(propan-2-yl)-1H-pyrazolo[3,4-b]pyridine-6-carboxamide] | 344.25 | 946 | –
CC(C)c1nn(-c2ccc(F)cc2)c2nc(C(=O)NS(C)(=O)=O)cc(N3CC[C@@H](O)[C@H](F)C3)c12 [Compound 344, 4-[(3R,4R)-3-fluoro-4-hydroxypiperidin-1-yl]-1-(4-fluorophenyl)-N-(methanesulfonyl)-3-(propan-2-yl)-1H-pyrazolo[3,4-b]pyridine-6-carboxamide] | 374.5 | 1060 | –
COCC(COC)Oc1cc(C(=O)NS(C)(=O)=O)nc2c1c(C1CCC1)nn2-c1ccccc1 [Compound 324, 3-cyclobutyl-4-[(1,3-dimethoxypropan-2-yl)oxy]-N-(methanesulfonyl)-1-phenyl-1H-pyrazolo[3,4-b]pyridine-6-carboxamide] | 259.7 | 1640 | –
COCC1CCN(c2cc(C(=O)NS(=O)(=O)CCCN3CCC3)nc3c2c(C(C)C)nn3-c2ccc(F)cc2)CC1 [Compound 302, N-[3-(azetidin-1-yl)propane-1-sulfonyl]-1-(4-fluorophenyl)-4-[4-(methoxymethyl)piperidin-1-yl]-3-(propan-2-yl)-1H-pyrazolo[3,4-b]pyridine-6-carboxamide] | 401.45 | 1800 | –
CC(=O)N1CC[C@@H]2CN(c3cc(C(=O)NS(=O)(=O)CCCN4CCOCC4)nc4c3c(C3CCC3)nn4-c3ccccc3)CC[C@@H]21 [Compound 332, 4-[(3aR,7aS)-1-acetyloctahydro-5H-pyrrolo[3,2-c]pyridin-5-yl]-3-cyclobutyl-N-[3-(morpholin-4-yl)propane-1-sulfonyl]-1-phenyl-1H-pyrazolo[3,4-b]pyridine-6-carboxamide] | 448.25 | – | 624
O=C(NS(=O)(=O)C1CCOC1)c1cc(N2CCN(c3ccncc3)CC2)c2c(C3CCC3)nn(C3CCCCC3)c2n1 (centres unmarked) [Compound 468, 3-cyclobutyl-1-cyclohexyl-N-(oxolane-3-sulfonyl)-4-[4-(pyridin-4-yl)piperazin-1-yl]-1H-pyrazolo[3,4-b]pyridine-6-carboxamide] | 443.05 | 524 | –
COCC1(F)CCN(c2cc(C(=O)NS(C)(=O)=O)nc3c2c(C(C)C)nn3-c2ccc(F)cc2)CC1 [Compound 345, 4-[4-fluoro-4-(methoxymethyl)piperidin-1-yl]-1-(4-fluorophenyl)-N-(methanesulfonyl)-3-(propan-2-yl)-1H-pyrazolo[3,4-b]pyridine-6-carboxamide] | 301.1 | 223 | –
O=C(NS(=O)(=O)C1CC1)c1cc(N2CCC(N3CCCCC3)CC2)c2c(C3CCC3)nn(-c3ccccc3)c2n1 [Compound 428, 4-([1,4′-bipiperidin]-1′-yl)-3-cyclobutyl-N-(cyclopropanesulfonyl)-1-phenyl-1H-pyrazolo[3,4-b]pyridine-6-carboxamide] | 434.7 | – | 77.3
CC(C)c1nn(-c2ccc(F)cc2)c2nc(C(=O)NS(C)(=O)=O)cc(OCC3COCCO3)c12 (centres unmarked) [Compound 312, 4-[(1,4-dioxan-2-yl)methoxy]-1-(4-fluorophenyl)-N-(methanesulfonyl)-3-(propan-2-yl)-1H-pyrazolo[3,4-b]pyridine-6-carboxamide] | 291.5 | 1880 | –
CC(C)c1nn(-c2ccc(F)cc2)c2nc(C(=O)NS(=O)(=O)C3CC3)cc(N3CCC(N4CCOCC4)CC3)c12 [Compound 414, N-(cyclopropanesulfonyl)-1-(4-fluorophenyl)-4-[4-(morpholin-4-yl)piperidin-1-yl]-3-(propan-2-yl)-1H-pyrazolo[3,4-b]pyridine-6-carboxamide] | 508.3 | – | 159
O=C(NS(=O)(=O)N1CCOCC1)c1cc(OCC2CCOCC2)c2c(C3CCC3)nn(-c3ccccc3)c2n1 [Compound 358, 3-cyclobutyl-N-(morpholine-4-sulfonyl)-4-[(oxan-4-yl)methoxy]-1-phenyl-1H-pyrazolo[3,4-b]pyridine-6-carboxamide] | 242.33 | 89.9 | –
COCC1CCN(c2cc(C(=O)NS(=O)(=O)CCC(=O)OC)nc3c2c(C2CCC2)nn3-c2ccccc2)CC1 [Compound 288, methyl 3-({3-cyclobutyl-4-[4-(methoxymethyl)piperidin-1-yl]-1-phenyl-1H-pyrazolo[3,4-b]pyridine-6-carbonyl}sulfamoyl)propanoate] | 566.4 | 74.3 | –
